The test deals with BDF1 mice, P388 leukemia ip, median survival T/C. Briefly: NCI In Vivo Anticancer Drug Screen. Data for tumor model P388 Leukemia (intraperitoneal) in B6D2F1 (BDF1) mice. The settings on record: endpoint: median survival time, higher = longer survival. In short, it runs like this:
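Transplantable tumour in mice; compound vs vehicle dosing; survival scored; ratio of treated to control reported.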

[1] abbreviates: dose: 25.0 mg/kg/injection, schedule: Q04DX003 (ip), vehicle: Klucel (hydroxypropylcellulose) (HPC).
[2] abbreviates: dose: 50.0 mg/kg/injection, schedule: Q04DX003 (ip), vehicle: Klucel (hydroxypropylcellulose) (HPC).
[3] abbreviates: dose: 12.5 mg/kg/injection, schedule: Q01DX009 (ip), vehicle: Klucel (hydroxypropylcellulose) (HPC).

In PubChem BioAssay AID328 (DTP/NCI, 2004) one finds T/C data, which are given here for eight compounds.

Structures are written as SMILES. Inconclusive results and toxic doses are left out.

Turning to `CC(=O)O[C@H]1C(=O)[C@@]2(C)[C@H]([C@H](OC(=O)c3ccccc3)[C@]3(O)C[C@H](OC(=O)[C@H](O)[C@@H](NC(=O)c4ccccc4)c4ccccc4)C(C)=C1C3(C)C)[C@]1(OC(C)=O)CO[C@@H]1C[C@@H]2O`, the T/C by setting is: (dose: 5.0 mg/kg/injection, schedule: Q01DX010 (ip), vehicle: steriod suspending solution) 186 % of control; (dose: 10.0 mg/kg/injection, schedule: Q01DX010 (ip), vehicle: steriod suspending solution) 172 % of control; (dose: 12.5 mg/kg/injection, schedule: Q04DX003 (iv), vehicle: Klucel (hydroxypropylcellulose) (HPC)) 100 % of control; (dose: 20.0 mg/kg/injection, schedule: Q01DX010 (ip), vehicle: steriod suspending solution) 190 % of control; (dose: 21.6 mg/kg/injection, schedule: Q04DX003 (ip), vehicle: Klucel (hydroxypropylcellulose) (HPC)) 171 % of control; (dose: 25.0 mg/kg/injection, schedule: Q01DX010 (ip), vehicle: steriod suspending solution) 113 % of control. The T/C reads like this: under setting [1], 162 % of control; (dose: 25.0 mg/kg/injection, schedule: Q04DX003 (iv), vehicle: Klucel (hydroxypropylcellulose) (HPC)) 98 % of control; (dose: 25.9 mg/kg/injection, schedule: Q04DX003 (ip), vehicle: Klucel (hydroxypropylcellulose) (HPC)) 179 % of control; (dose: 43.2 mg/kg/injection, schedule: Q04DX003 (ip), vehicle: Klucel (hydroxypropylcellulose) (HPC)) 170 % of control; under setting [2], 165 % of control; (dose: 50.0 mg/kg/injection, schedule: Q04DX003 (iv), vehicle: Klucel (hydroxypropylcellulose) (HPC)) 103 % of control. The T/C runs as follows: (dose: 60.0 mg/kg/injection, schedule: Q04DX003 (ip), vehicle: Klucel (hydroxypropylcellulose) (HPC)) 102 % of control; (dose: 72.0 mg/kg/injection, schedule: Q04DX003 (ip), vehicle: Klucel (hydroxypropylcellulose) (HPC)) 166 % of control; (dose: 100.0 mg/kg/injection, schedule: Q04DX003 (ip), vehicle: Klucel (hydroxypropylcellulose) (HPC)) 173 % of control; (dose: 120.0 mg/kg/injection, schedule: Q04DX003 (ip), vehicle: Klucel (hydroxypropylcellulose) (HPC)) 100 % of control.

As for `CCn1cnc2c(SC3CCCC3)ncnc21`, the T/C runs as follows: (dose: 100.0 mg/kg/injection, schedule: Q04DX003 (ip), vehicle: saline sonified) 100 % of control; (dose: 200.0 mg/kg/injection, schedule: Q04DX003 (ip), vehicle: saline sonified) 100 % of control; (dose: 400.0 mg/kg/injection, schedule: Q04DX003 (ip), vehicle: saline sonified) 100 % of control.

On to `COc1cc2c(c(OC)c1OC)-c1ccc(SCc3ccccc3)c(=O)cc1[C@@H](NC(C)=O)CC2`, for which the T/C by setting is: (dose: 8.2 mg/kg/injection, schedule: Q01DX009 (ip), vehicle: Klucel (hydroxypropylcellulose) (HPC)) 117 % of control; under setting [3], 170 % of control.

For `CC(=O)OC1(C)CC(C)(C)N=N1` (configuration not stated), the T/C (dose: 25.0 mg/kg/injection, schedule: Q01DX005 (ip), vehicle: water) is 107 % of control; the T/C (dose: 50.0 mg/kg/injection, schedule: Q01DX005 (ip), vehicle: water) is 105 % of control; the T/C (dose: 100.0 mg/kg/injection, schedule: Q01DX005 (ip), vehicle: water) is 105 % of control; the T/C (dose: 200.0 mg/kg/injection, schedule: Q01DX005 (ip), vehicle: water) is 114 % of control; the T/C (dose: 400.0 mg/kg/injection, schedule: Q01DX005 (ip), vehicle: water) was 107 % of control.

For `CC1(C)OS2(c3ccccc3)OC(=O)c3cccc1c32` (configuration not stated), the T/C runs as follows: (dose: 50.0 mg/kg/injection, schedule: Q04DX002 (ip), vehicle: saline) 94 % of control; (dose: 100.0 mg/kg/injection, schedule: Q04DX002 (ip), vehicle: saline) 100 % of control; (dose: 200.0 mg/kg/injection, schedule: Q04DX002 (ip), vehicle: saline) 100 % of control.

As to `O=C(/C(=C/c1ccccc1)CBr)c1ccccc1`, the T/C was 109 % of control (dose: 1.6 mg/kg/injection, schedule: Q01DX009 (ip), vehicle: Klucel (hydroxypropylcellulose) (HPC)); 100 % of control (dose: 3.1 mg/kg/injection, schedule: Q01DX009 (ip), vehicle: Klucel (hydroxypropylcellulose) (HPC)); 104 % of control (dose: 6.25 mg/kg/injection, schedule: Q01DX009 (ip), vehicle: Klucel (hydroxypropylcellulose) (HPC)); 86 % of control under setting [3]; 104 % of control (dose: 12.5 mg/kg/injection, schedule: Q04DX003 (ip), vehicle: Klucel (hydroxypropylcellulose) (HPC)); 86 % of control (dose: 25.0 mg/kg/injection, schedule: Q01DX009 (ip), vehicle: Klucel (hydroxypropylcellulose) (HPC)). The T/C under setting [1] is 95 % of control and the T/C under setting [2] is 95 % of control.

For the compound `COc1ccc2c(c1)CCC1=C2C=C[P+]1(C)C`, the T/C is, setting by setting: (dose: 12.5 mg/kg/injection, schedule: Q01DX009 (ip), vehicle: saline with Tween-80) 92 % of control; (dose: 25.0 mg/kg/injection, schedule: Q01DX009 (ip), vehicle: saline with Tween-80) 111 % of control.

`CCO/C=C1\SC(=S)N(c2ccc(O)cc2)C1=O`: the T/C is, setting by setting: (dose: 50.0 mg/kg/injection, schedule: Q01DX009 (ip), vehicle: saline with Tween-80) 116 % of control; (dose: 100.0 mg/kg/injection, schedule: Q01DX009 (ip), vehicle: saline with Tween-80) 116 % of control; (dose: 200.0 mg/kg/injection, schedule: Q01DX009 (ip), vehicle: saline with Tween-80) 116 % of control.
